Literature values as cited in patent publication US20240377385A1, “METHODS AND COMPOSITIONS OF MATTER FOR TREATING CANCER AND PREDICTING RESPONSE TO THERAPY” (ICCA INC., priority 2023, published 2024).

Columns and labels:
[1] = tested on: monocytes derived from human peripheral blood; settings: 12 hour exposure; cited from earlier work
dendritic cells = settings: cited from earlier work
NK = settings: high dose; cited from earlier work
S-180 sarcoma = settings: parenteral administration; cited from earlier work
[2] = tested on: PAIII androgen-independent syngeneic prostate cancer cell line; settings: daily intraperitoneal administration for 30 days, evaluation at day 40; cited from earlier work
[3] = tested on: human xenografted glioma, ovarian, and neuroblastoma cells; settings: cited from earlier work
HUVEC = settings: in vitro; cited from earlier work
[4] = tested on: hypoxia inducible factor (HIF)-1; settings: cited from earlier work
T cell and B cell = settings: high dose; in vitro; cited from earlier work
[5] = tested on: battery of tumor cell lines; settings: in vitro; cited from earlier work
vascular cord formation = settings: in vivo administration; cited from earlier work
neovascularization = settings: cited from earlier work

Structure (SMILES)	FcgammaR-mediated cytokine production and antibody-dependent cellular cytotoxicity by monocytes [1]	T cell activating ability of dendritic cells (dendritic cells)	NK cytotoxic activity (NK)	angiogenesis and the pro-angiogenic factors bFGF, VEGF, and MMP-2 (S-180 sarcoma)	tumor growth (S-180 sarcoma)	pulmonary and lymphatic metastasis [2]	tumor growth [2]	in vivo inhibition of xenografted cells [3]	HUVEC proliferation (HUVEC)	activation of the hypoxia inducible factor (HIF)-1 [4]	T cell and B cell proliferative responses as well as IL-2 secretion (T cell and B cell)	cytotoxicity of Docetaxel, Epirubicin, Irinotecan and 5-FU [5]	vascular cord formation (vascular cord formation)	neovascularization (neovascularization)
CCOCc1nc2c(N)nc3ccccc3c2n1CC(C)(C)O [Group R-848, resiquimod]	increased													
O=C1O[C@H]([C@@H](O)CO)C(O)=C1O [AA, ascorbic acid]		inhibit	inhibits	suppression	reduced tumor growth	reduction	significant inhibition	successful in vivo inhibition	inhibits	suppresses activation	inhibits	Enhancement	suppressed vascular cord formation	suppressing neovascularization
